Columns and labels:
Format in all cases: in vivo
[1] = tested on: GW ave; assay: Post-emergent evaluation, average; details: after 2 weeks
Method: (§1) Seeds of the desired test plant species were planted in Grace-Sierra MetroMix® 306 planting mixture, which typically has a pH of 6.0 to 6.8 and an organic matter content of about 30 percent, in plastic pots with a surface area of 64 square centimeters. When required to ensure good germination and healthy plants, a fungicide treatment and/or other chemical or physical treatment was applied. The plants were grown for 7-21 days in a greenhouse with an approximate 15 hr photoperiod which was maintained at about 23-29° C. during the day and 22-28° C. during the night. Nutrients and water were added on a regular basis and supplemental lighting was provided with overhead metal halide 1000-Watt lamps as necessary. The plants were employed for testing when they reached the first or second true leaf stage.
(§2) A weighed amount, determined by the highest rate to be tested, of each test compound was placed in a 20 mL glass vial and was dissolved in 4 mL of a 97:3 v/v (volume/volume) mixture of acetone and dimethyl sulfoxide (DMSO) to obtain concentrated stock solutions. […] The concentrated stock solutions obtained were diluted with an aqueous mixture containing acetone, water, isopropyl alcohol, DMSO, Atplus 411F crop oil concentrate, and Triton X-155 surfactant in a 48.5:39:10:1.5:1.0:0.02 v/v ratio to obtain spray solutions of known concentration. The solutions containing the highest concentration to be tested were prepared by diluting 2 mL aliquots of the stock solution with 13 mL of the mixture and lower concentrations were prepared by serial dilution of the stock solution. Approximately 1.5 mL aliquots of each solution of known concentration were sprayed evenly onto each of the test plant pots using a DeVilbiss atomizer driven by compressed air pressure of 2 to 4 psi ([…]) to obtain thorough coverage of each plant. Control plants were sprayed in the same manner with the aqueous mixture. In this test an application rate of 1 ppm results in the application of approximately 1 g/Ha.
(§3) The treated plants and control plants were placed in a greenhouse as described above and watered by sub-irrigation to prevent wash-off of the test compounds. After 2 weeks the condition of the test plants as compared with that of the untreated plants was determined visually and scored on a scale of 0 to 100 percent where 0 corresponds to no injury and 100 corresponds to complete kill. Species abbreviations as described for Table I with the following additions: soybean (Glycine max, GLXMA), rape (Brassica napus, BRSNN), chickweed (Stellaria media, STEME), cocklebur (Xanthium strumarium XANST), lambsquarters (Chenopodium album, CHEAL), violet (Viola tricolor, VIOTR), bindweed (Polygonum convolvulus, POLCO), spurge (Euphorbia heterophylla, EPHHL), Canada thistle (Cirsium arvense, CIRAR), corn (Zea mays, ZEAMX), rice (Oryza sativa, ORYSA), wheat (Triticum aestivum, TRZAS), crabgrass (Digitaria sanguinalis, DIGSA), shattercane (Sorghum vulgare, SORVU) and yellow nutsedge (Cyperus esculentus, CYPES).

[2] = tested on: BW ave; assay: Post-emergent evaluation, average; details: after 2 weeks
Method: as §1, §2, §3

[3] = tested on: velvetleaf (Abutilon theophrasti, ABUTH); assay: General herbicidal evaluation, postemergence; details: 16 days after treatment
Excerpt: Applications of methylidene mevalonate were made either to the foliage (postemergence) or soil (preemergence). Seeds of sunflower (Helianthus annus, HELAN), morningglory (Ipomoea hederacea, IPOHE) velvetleaf (Abutilon theophrasti, ABUTH), pigweed (Amaranthus spp., AMARE), barnyardgrass (Echinochloa crusgalli, ECHCG), giant foxtail (Setaria faberi, SETFA), wild oats (Avena fatua, AVEFA), and blackgrass (Alopecurus myosuroides, ALOMY) were planted in mineral soil (sandy clay loam, 51% sand, 26% silt, 23% clay, 2.8% O.M., pH 7.8) and Metro-mix (Bulk Sak, Inc., Malvern, Ark., USA) for preemergence and postemergence treatments, respectively. Pots receiving preemergence treatments were watered immediately following application. Prior to postemergence treatment, plants were grown in the greenhouse (16 h photoperiod, 27 C) and thinned to a density of 2 to 15 plants pot^−1, depending on species. At the time of postemergence applications, plants were 8-12 days old, 3 to 10 cm in height, and in the 1- to 3-true-leaf stage. Natural light in the greenhouse was supplemented with metal halide lights that provided an average photosynthetic photon flux of 500 μmol m^−2s^−1.
A sample of sodium methylidene mevalonate was dissolved in 4 mL of distilled water followed by 10 mL of formulation stock “B” (200 mL isopropanol, 20 mL crop oil concentrate, 0.4 g Triton X-155 [Sigma Chemical Co., St. Louis, Mo. 62718], and 78 mL water). This was followed by three 1:1 (v/v) serial dilutions using formulation stock “C” (100 mL isopropanol, 10 mL crop oil concentrate, 0.2 g Triton X-155, 390 mL water, 485 mL acetone and 15 mL DMSO).
Treatments were made at four different doses (4000, 2000, 1000, and 500 g ha^−1). For preemergence treatments, 1.75 mL of spray solution were applied to the soil surface in each pot using a glass Cornwall syringe fitted with a Teejet SS8001E flat-fan nozzle (Spraying Systems Co., Wheaton, Ill. 60189-7900). For postemergence applications, the foliage of the test plants was sprayed using a DeVilbiss atomizer (DeVilbiss Health Car, Inc., Somerset, Pa. 15501) driven by compressed air at a pressure of 22 kPa. Untreated controls were included.
Pots were placed in the greenhouse following compound application. Pots from postemergence and preemergence were sub-irrigated and top-watered, respectively, as needed for the duration of the test. […]

[4] = tested on: crabgrass (Digitaria sanguinalis, DIGSA); assay: Synergistic herbicidal activity, foliar track sprayer; details: methylidene mevalonate 933 g ae/ha alone, 14 days, 1% crop oil concentrate
Method: (§4) Methylidene mevalonate alone and in combination with nonanoic acid was applied to the foliage of rapidly growing plant material utilizing a track sprayer calibrated to deliver an application volume of 187 L/ha. These treatments were applied to both broadleaf and grass weed species. All treatments contained 1% crop oil concentrate. Assessment of herbicidal activity was performed visually relative to untreated controls after 14 days incubation in the greenhouse. Species abbreviations are as previously defined.

[5] = tested on: morningglory (Ipomoea hederacea, IPOHE); assay: as above; details: methylidene mevalonate 933 g ae/ha alone, 14 days, 1% crop oil concentrate
Method: as §4

[6] = tested on: lambsquarters (Chenopodium album, CHEAL); assay: as above; details: methylidene mevalonate 933 g ae/ha alone, 14 days, 1% crop oil concentrate
Method: as §4

[7] = tested on: wild oats (Avena fatua, AVEFA); assay: as above; details: methylidene mevalonate 933 g ae/ha alone, 14 days, 1% crop oil concentrate
Method: as §4

C=C(CO)C(C)(O)CC(=O)O (stereo not drawn) [methylidene mevalonate, 3-hydroxy-4-(hydroxymethyl)-3-methylpent-4-enoic acid]
Postemergent % Control, GW ave ([1]; spray concentration 125 ppm): 12%
Postemergent % Control, GW ave ([1]; spray concentration 250 ppm): 39%
Postemergent % Control, GW ave ([1]; spray concentration 500 ppm): 64%
Postemergent % Control, GW ave ([1]; spray concentration 1000 ppm): 82%
Postemergent % Control, GW ave ([1]; spray concentration 2000 ppm): 88%
Postemergent % Control, BW ave ([2]; spray concentration 125 ppm): 11%
Postemergent % Control, BW ave ([2]; spray concentration 250 ppm): 15%
Postemergent % Control, BW ave ([2]; spray concentration 500 ppm): 37%
Postemergent % Control, BW ave ([2]; spray concentration 1000 ppm): 54%
Postemergent % Control, BW ave ([2]; spray concentration 2000 ppm): 63%
Visual Injury (%) ([3]; 0.5 kg ha^−1, ABUTH): 40%
Visual Injury (%) ([3]; 1.0 kg ha^−1, ABUTH): 60%
Visual Injury (%) ([3]; 2.0 kg ha^−1, ABUTH): 60%
Visual Injury (%) ([3]; 4.0 kg ha^−1, ABUTH): 65%
Actual Injury % growth reduction [4]: 35%
Actual Injury % growth reduction [5]: 60%
Actual Injury % growth reduction [6]: 0%
Actual Injury % growth reduction [7]: 35%

From patent US7393812B2, “Methylidene mevalonates and their use as herbicides” (Dow AgroSciences LLC, priority 2004, dated 2008)
